Laboratory results taken from patent publication US20190002429A1, “Derivatives of Xanthone Compounds” (Agency for Science, Technology and Research, priority 2011, published 2019).
“And” between values parts separate entries of the source, which are not always exact repeats. Identical values can stand only once. Like-named read-outs stand apart in the source and are kept apart here.

Key:
[1] = system: red blood cell
[2] = system: Straphylococcus aureus ATCC 29737; experiment: MIC against S. aureus ATCC 29737; assay type: cell-based, Staphylococcus aureus
[3] = system: S. aureus and Enterococcus faecalis; conditions: 4 strains, sub-inhibitory concentrations, FIG. 8
[4] = system: S. aureus DM4001; experiment: SYTOX green membrane permeabilization assay, S. aureus; conditions: 10 μM
Description: S. aureus DM4001 was harvested at early exponential phase and suspended in 40 mM PBS until OD620 of 0.09 was obtained. Then, the bacteria suspension was incubated with 3 μM of SYTOX Green in dark. The mixture was monitored in a stirring cuvette at an excitation wavelength of 504 nm and at an emission wavelength of 523 nm until the fluorescence was stable. Then, 10 μM of AM compounds were added and the changed of fluorescence emissions were monitored.

[5] = system: S. aureus; experiment: MIC99 against S. aureus (Table 2-1); assay type: cell-based, Staphylococcus aureus
[6] = system: Enterococcus faecalis ATCC 29212; experiment: MIC against Enterococcus faecalis ATCC 29212; assay type: cell-based
[7] = system: Enterococcus faecalis ATCC 51299 VRE; experiment: MIC against Enterococcus faecalis ATCC 51299 VRE; assay type: cell-based; conditions: E. faecalis ATCC 51299 VRE; no unit in table (Example 10 MICs in μg/ml)
[8] = system: MRSA DB57964/04; experiment: MIC against MRSA DB57964/04; assay type: cell-based, Staphylococcus aureus
[9] = system: MRSA strain DM21455; experiment: Kill curve (time killing) of MRSA; assay type: cell-based, Staphylococcus aureus; conditions: FIG. 1
[10] = system: Streptococcus epidermidis ATCC 12228; experiment: MIC against Streptococcus epidermidis ATCC 12228; assay type: cell-based
[11] = system: Staphylococcus aureus ATCC29213; experiment: MIC against S. aureus ATCC29213; assay type: cell-based
[12] = system: Enterococcus faecalis 11: DU9345 VRE; experiment: MIC against Enterococcus faecalis DU9345 VRE; assay type: cell-based; conditions: E. faecalis DU9345 VRE; no unit in table (Example 10 MICs in μg/ml)
[13] = system: Clinical Staphylococcus aureus DM4001; experiment: MIC against clinical S. aureus DM4001; assay type: cell-based; conditions: Clinical S. aureus DM4001, Source: Eye
[14] = system: Mycobacterium tuberculosis
[15] = system: Clinical Staphylococcus aureus DM4400R; experiment: MIC against clinical S. aureus DM4400R; assay type: cell-based; conditions: Source: Cornea
[16] = system: Clinical Staphylococcus aureus DM4583R; experiment: MIC against clinical S. aureus DM4583R; assay type: cell-based; conditions: Source: Eye
[17] = system: MRSA DM09808R; experiment: MIC against MRSA DM09808R; assay type: cell-based, Staphylococcus aureus
[18] = system: Clinical Staphylococcus aureus DM4299; experiment: MIC against clinical S. aureus DM4299; assay type: cell-based
[19] = system: Enterococcus faecalis 11: DS6527 (VRE 208/11); experiment: MIC against Enterococcus faecalis DS6527 (VRE 208/11); assay type: cell-based; conditions: E. faecalis DS6527 (VRE 208/11); no unit in table (Example 10 MICs in μg/ml)
[20] = system: Bacillus cereus ATCC11778; experiment: MIC against Bacillus cereus ATCC11778; assay type: cell-based
[21] = system: Gram-negative bacteria; experiment: Antimicrobial activity against Gram-negative bacteria (statement); assay type: cell-based
[22] = pH value in different media; assay type: physicochemical
Text: The pH values were obtained using an electronic pH meter.

[23] = Calcein leakage from DOPC:DOPS liposomes; conditions: DOPC:DOPS = 3:1
Description: To further investigate antimicrobial action of the active compounds via inner membrane targeting, a calcein leakage study was performed. In brief, liposomes which mimic bacterial membrane (DOPE: […] The lipids were dissolved in methanol/chloroform (1:2, by volume). The solvent was then dried gently using a constant stream of nitrogen gas. Then, the lipid film was placed under vacuum for at least two hours. […] The hydrated vesicles were freeze-thaw (frozen in liquid nitrogen and warmed in water bath) for at least 7 cycles. Extrusion method using mini-extruder (Avanti Polar Lipid Inc.) was used to produce homogeneous large unilamellar vesicles (LUVs). The extrusion was done for at least 10 cycles using a polycarbonate membrane (Whatman, pore size 100 nm) to obtain LUVs with diameter of 100 nm. To separate the calcein encapsulated vesicles from free calcein, gel filtration column Sephadex G-50 was used. The concentrations of eluted liposomes were determined using total phosphorus determination assay. Leakage of calcein from the liposome induced by AM-series compounds could be monitored using fluorescence spectroscopy (Photon Technology International Model 814) at an excitation wavelength of 490 nm and an emission wavelength of 520 nm. […] Those compounds with […] HC50 values have stronger leakage %. […] To further investigate the inner membrane targeting action of AM-series compounds, E. coli lipid extract was used to construct the liposome. […] Therefore, the outer layer of Gram-negative bacteria (LPS) may play important role to impede the AM-series compounds to reach inner membrane. Calcein leakage data strongly support the active compounds are inner membrane targeting.

[24] = system: Straphylococcus aureus ATCC 25923; experiment: MIC against S. aureus ATCC 25923; assay type: cell-based, Staphylococcus aureus
[25] = system: Pseudomonas aeruginosa ATCC27853; experiment: MIC against Pseudomonas aeruginosa ATCC27853; assay type: cell-based
[26] = system: MRSA DR42412; experiment: MIC against MRSA DR42412; assay type: cell-based, Staphylococcus aureus
[27] = system: Streptococcus faecium ATCC 10541; experiment: MIC against Streptococcus faecium ATCC 10541; assay type: cell-based
[28] = system: MRSA DM21595; experiment: MIC against MRSA DM21595; assay type: cell-based, Staphylococcus aureus
[29] = system: MRSA DR68004; experiment: MIC against MRSA DR68004; assay type: cell-based, Staphylococcus aureus; conditions: MRSA DR68004, Source: Blood

3,6-bis-[4-(diethylamino)butoxy)]-1-hydroxy-7-methoxy-2,8-bis(3-methylbut-2-enyl)-9H-xanthen-9-one [AM-016]
HC50 [1]: 19.6 µg/mL
Hemolytic concentration, HC50 [1]: 19.6 µg/mL
Minimum inhibition concentration (MIC) [2]: 1.56 μg/ml and 2.35 μM
Resistance (>4-fold increase in original MIC) in multipassage study [3]: no evidence of resistance or cross-resistance
SYTOX green staining of bacteria (fluorescence microscopy) ([4]; FIG. 14): Large numbers of stained bacteria
Membrane permeabilization (SYTOX green fluorescence emission) ([4]; fluorescence spectroscopy): could induce membrane permeabilization
MIC99 S. aureus [5]: 0.39 µg/mL
Minimum inhibition concentration (MIC) [6]: 0.78 μg/ml and 1.17 μM
Minimum inhibitory concentration [7]: 1.56
Minimum inhibition concentration (MIC) [8]: 0.78 μg/ml and 1.17 μM
Time to eliminate 99.9% of MRSA [9]: ≤ 20 min
Minimum inhibition concentration (MIC) [10]: 0.78 μg/ml and 1.17 μM
Minimum inhibition concentration (MIC) [11]: 0.39 μg/ml and 0.59 μM
Minimum inhibitory concentration [12]: 0.78
Minimum inhibition concentration (MIC) [13]: 1.56 μg/ml and 2.35 μM
MIC100 [14]: 4 µM
MIC100 ([14]; value in brackets): 2.66 µg/mL
Minimum inhibition concentration (MIC) [15]: 0.78 μg/ml and 1.17 μM
Minimum inhibition concentration (MIC) [16]: 0.78 μg/ml and 1.17 μM
Minimum inhibition concentration (MIC) ([17]; MRSA DM09808R, Source: Eye): 1.56 μg/ml and 2.35 μM
MIC ([17]; MRSA-09808R (Eye), Example 10, Mueller Hinton broth dilution): 3.125 µg/mL
Minimum inhibition concentration (MIC) [18]: 1.56 μg/ml and 2.35 μM
Minimum inhibitory concentration [19]: 0.098
Minimum inhibition concentration (MIC) [20]: 3.125 μg/ml and 4.70 μM
Activity against Gram-negative bacteria [21]: inactive
pH ([22]; PBS, 50 μg/ml compound): 6.96 ± 0.01
pH ([22]; PBS, 100 μg/ml compound): 6.97 ± 0.01
pH ([22]; Saline, 50 μg/ml compound): 6.84 ± 0.21
pH ([22]; Saline, 100 μg/ml compound): 6.78 ± 0.05
pH ([22]; Water, 50 μg/ml compound): 6.44 ± 0.27
pH ([22]; Water, 70 μg/ml compound): 6.72 ± 0.23
% Leakage of calcein ([23]; compound:lipid ratio 1:2): 88.43%
% Leakage of calcein ([23]; compound:lipid ratio 1:4): 72.76%
% Leakage of calcein ([23]; compound:lipid ratio 1:8): 37.66%
Minimum inhibition concentration (MIC) [24]: 3.125 μg/ml and 4.70 μM
Minimum inhibition concentration (MIC) [25]: 50 μg/ml and 75.20 μM
Minimum inhibition concentration (MIC) ([26]; MRSA DR42412, Source: Sputum): 1.56 μg/ml and 2.35 μM
MIC ([26]; MRSA-42412 (Sputum), Example 10, Mueller Hinton broth dilution): 0.395 µg/mL
Minimum inhibition concentration (MIC) [27]: 0.195 μg/ml and 0.295 μM
Minimum inhibition concentration (MIC) ([28]; MRSA DM21595, Source: Wound): 0.78 μg/ml and 1.17 μM
MIC ([28]; MRSA-21595 (Wound), Example 10, Mueller Hinton broth dilution): 0.395 µg/mL
Minimum inhibition concentration (MIC) [29]: 1.56 μg/ml and 2.35 μM
